Measured values published in ChEMBL document CHEMBL1128127, “The design of potent and stable benzisothiazolone inhibitors of human leukocyte elastase” (Bioorg Med Chem Lett, 1995).

Columns and labels:
in vitro = settings: human, blood
Description: Half-life (human blood stability)

Neutrophil elastase = molecular target: T1, Neutrophil elastase (Homo sapiens, UniProt P08246)
T1 sequence (P08246 whole entry): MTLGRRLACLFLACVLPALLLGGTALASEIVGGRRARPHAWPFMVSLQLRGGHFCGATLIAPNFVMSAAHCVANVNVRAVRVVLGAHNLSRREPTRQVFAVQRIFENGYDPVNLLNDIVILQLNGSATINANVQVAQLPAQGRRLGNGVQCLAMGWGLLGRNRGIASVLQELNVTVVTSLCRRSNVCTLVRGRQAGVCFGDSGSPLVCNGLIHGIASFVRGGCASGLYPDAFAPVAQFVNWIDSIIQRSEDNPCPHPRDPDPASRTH
Description: Ratio of Koff to that of Kon was determined on human leukocyte elastase(HLE)

[1] = molecular target: T2, Neutrophil elastase (Homo sapiens) (UniProt P08246)
T2 sequence (whole entry): T1 sequence (P08246 whole entry)
Description: (§1) Evaluated for inhibitory activity against Human leukocyte elastase (HLE)

[2] = molecular target: T2, Neutrophil elastase (Homo sapiens); remark: listed apart in the source
Description: as §1

[3] = Half-life was determined; 88% of parent remained after incubation for 120 min (human blood stability); assay type: ADME, tissue-based

SMILES | half-life (in vitro) [min] | Ki (Neutrophil elastase) [nM] | k on [1] [M⁻¹ s⁻¹] | k off [2] [s⁻¹] | half-life [3] [min]
COc1cc(C(C)C)c2c(c1)S(=O)(=O)N(COC(=O)c1c(Cl)cccc1Cl)C2=O | 140 |  |  |  | 
CCCc1c(OC)c(OC)cc2c1C(=O)N(CSc1nnnn1-c1ccccc1)S2(=O)=O | 37 | 0.2 | 240000 | 4.7e-05 | 
CCCc1cccc2c1C(=O)N(CSc1nnnn1-c1ccccc1)S2(=O)=O | 55 |  |  |  | 
CC(C)(C)c1cccc2c1C(=O)N(CSc1nnnn1-c1ccccc1)S2(=O)=O |  | > 2000 |  |  | > 120
COc1cc2c(c(C(C)C)c1OC)C(=O)N(CSc1nnnn1-c1ccccc1)S2(=O)=O | 65 | 5.2 | 11800 | 6.1e-05 | 
CC(C)c1cc(N(C)C)cc2c1C(=O)N(COC(=O)c1c(Cl)cccc1Cl)S2(=O)=O |  | 2.2 | 12300 | 2.7e-05 | 
O=C1c2ccccc2S(=O)(=O)N1CSc1nnnn1-c1ccccc1 | < 5 |  |  |  | 
CCc1cccc2c1C(=O)N(CSc1nnnn1-c1ccccc1)S2(=O)=O | 54 |  |  |  | 
CC(C)c1cccc2c1C(=O)N(COC(=O)c1c(Cl)cccc1Cl)S2(=O)=O | 30 |  | 900000 | 2.7e-05 | 
CCC(CC)c1cccc2c1C(=O)N(CSc1nnnn1-c1ccccc1)S2(=O)=O | 100 |  |  |  | 
CC(C)c1cc(F)cc2c1C(=O)N(COC(=O)c1c(Cl)cccc1Cl)S2(=O)=O | < 15 | 0.03 | 1e+06 | 3e-05 | 
CC(C)c1cccc2c1C(=O)N(CSc1nnnn1-c1ccccc1)S2(=O)=O | 45 |  |  |  | 
CC(C)c1cc(N2CCN(C)CC2)cc2c1C(=O)N(COC(=O)c1c(Cl)cccc1Cl)S2(=O)=O | 110 | 1.1 | 21500 | 2.4e-05 | 
CCC(C)c1cccc2c1C(=O)N(CSc1nnnn1-c1ccccc1)S2(=O)=O (stereo unspecified) | 58 |  |  |  | 
